Counter-ions that a name gives are not always drawn.
Molecular target: T1, 5HT6 human recombinant receptor (Homo sapiens, UniProt P50406)
T1 construct: purchased Receptor Biology; host or cells: HEK-293 cell membranes (recombinant expression)
Assay: Binding Test to 5-HT6 Receptors ([3H]-LSD displacement, HEK-293 membranes)
Conditions: [3H]-LSD 2.7 nM, 60 min, 37° C.; for inhibition at 0.1 µM: compound at 10^−7 M; for inhibition at 0.01 µM: compound at 10^−8 M
Description: Binding Test to 5-HT6 Receptors
Membranes of HEK-293 cells expressing the 5HT6 human recombinant receptor were supplied by Receptor Biology. In these membranes the receptor concentration is 2.18 pmol/mg protein and the protein concentration is 9.17 mg/ml. The experimental protocol follows the method of B. L. Roth et al. [B. L. Roth, S. C. Craigo, M. S. Choudhary, A. Uluer, F. J. Monsma, Y. Shen, H. Y. Meltzer, D. R. Sibley: Binding of Typical and Atypical Antipsychotic Agents to 5-Hydroxytryptamine-6 and Hydroxytriptamine-7 Receptors. The Journal of Pharmacology and Experimental Therapeutics, 1994, 268, 1403] with slight modifications. The commercial membrane is diluted (dilution 1:40) with the binding buffer: 50 mM Tris-HCl, 10 mM MgCl2, 0.5 mM EDTA (pH 7.4). The radioligand used is [^3H]-LSD at a concentration of 2.7 nM with a final volume of 200 μl. Incubation is initiated by adding 100 μl of the membrane suspension (≈22.9 μg membrane protein), and continues for 60 minutes at a temperature of 37° C. Incubation ends by fast filtration in a Harvester Brandel Cell through glass fibre filters manufactured by Schleicher & Schuell GF 3362 pre-treated with a 0.5% polyethylenimine solution. The filters are washed three times with three millilitres of Tris-HCl 50 mM pH 7.4 buffer. The filters are transferred to phials and to each phial 5 ml of liquid scintillation cocktail Ecoscint H is added. The phials are allowed to reach equilibrium for several hours before being counted in a Wallac Winspectral 1414 scintillation counter. Non-specific binding is determined in the presence of 100 μM serotonin. The tests are performed in triplicate. The inhibition constants (Ki, nM) are calculated by non-linear regression analysis using the program EBDA/LIGAND [Munson and Rodbard, Analytical Biochemistry, 1980, 107, 220].

T1 sequence (P50406 whole entry): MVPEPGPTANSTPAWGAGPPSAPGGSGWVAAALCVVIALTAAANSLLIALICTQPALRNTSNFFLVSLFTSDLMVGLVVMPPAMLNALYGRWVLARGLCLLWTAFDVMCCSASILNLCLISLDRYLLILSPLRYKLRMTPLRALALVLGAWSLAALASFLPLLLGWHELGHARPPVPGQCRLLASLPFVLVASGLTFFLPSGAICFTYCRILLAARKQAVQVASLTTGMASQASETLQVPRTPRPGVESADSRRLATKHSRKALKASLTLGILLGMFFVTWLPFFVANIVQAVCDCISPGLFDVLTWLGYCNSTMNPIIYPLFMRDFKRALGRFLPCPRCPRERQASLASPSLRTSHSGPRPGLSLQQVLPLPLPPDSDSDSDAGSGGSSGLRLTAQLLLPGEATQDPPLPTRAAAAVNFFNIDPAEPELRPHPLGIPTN

Compound	inhibition at 0.1 µM	inhibition at 0.01 µM
Cc1c(S(=O)(=O)Nc2ccc3c(c2)C(N2CCN(C)CC2)CC3)sc2ccc(Cl)cc12 (centres unmarked) [Compound 3, N-[3-(4-methylpiperazin-1-yl)-2,3-dihydro-1H-inden-5-yl]-5-chloro-3-methylbenzo[b]thiophene-2-sulfonamide]	87.9%	55.7%
O=S(=O)(Nc1ccc2c(c1)C(=NNC1=NCCN1)CC2)c1c(Cl)nc2sccn12 [Compound 24, 6-chloro-N-[3-(4,5-dihydro-1H-imidazol-2-ylhydrazono)-2,3-dihydro-1H-inden-5-yl]imidazo[2,1-b][1,3]thiazole-5-sulfonamide hydrochloride]	87.7%	83.3%
CN1CCN(C2CCc3ccc(N(C)S(=O)(=O)c4c(Cl)nc5sccn45)cc32)CC1 (centres unmarked) [Compound 16, 6-chloro-N-methyl-N-[3-(4-methylpiperazin-1-yl)-2,3-dihydro-1H-inden-5-yl]imidazo[2,1-b][1,3]thiazole-5-sulfonamide]	72.7%	29%
CN(c1ccc2c(c1)/C(=N\NC(=N)N)CC2)S(=O)(=O)c1c(Cl)nc2sccn12 [Compound 22, 2-(6-{[(6-chloroimidazo[2,1-b][1,3]thiazol-5-yl)sulfonyl](methyl)amino}-2,3-dihydro-1H-inden-1-ylidene)hydrazinecarboximidamide hydrochloride]	89.2%	83.9%
CN1CCN(C2CCc3ccc(NS(=O)(=O)c4c(Cl)nc5sccn45)cc32)CC1 (racemic) [Compound 4, N-[3-(4-methylpiperazin-1-yl)-2,3-dihydro-1H-inden-5-yl]-6-chloroimidazo[2,1-b][1,3]thiazole-5-sulfonamide]	83.4%	63%
N=C(N)NN=C1CCc2cc(NS(=O)(=O)c3c(Cl)nc4sccn34)ccc21 [Compound 21, 2-(5-{[(6-chloroimidazo[2,1-b][1,3]thiazol-5-yl)sulfonyl]amino}-2,3-dihydro-1H-inden-1-ylidene)hydrazinecarboximidamide hydrochloride]	86.9%	78.1%
CC1(C)CC(=NNC(=N)N)c2cc(NS(=O)(=O)c3c(Cl)nc4sccn34)ccc21 [Compound 20, 2-(6-{[(6-chloroimidazo[2,1-b][1,3]thiazol-5-yl)sulfonyl]amino}-3,3-dimethyl-2,3-dihydro-1H-inden-1-ylidene)hydrazinecarboximidamide hydrochloride]	87.7%	77.2%
CN1CCN(C2CCc3ccc(NS(=O)(=O)c4ccc5ccccc5c4)cc32)CC1 (centres unmarked) [Compound 2, N-[3-(4-methylpiperazin-1-yl)-2,3-dihydro-1H-inden-5-yl]naphtalene-2-sulfonamide]	89.1%	71.6%
CN1CCN(C2CCc3cc(NS(=O)(=O)c4c(Cl)nc5sccn45)ccc32)CC1 (centres unmarked) [Compound 14, 6-chloro-N-[1-(4-methylpiperazin-1-yl)-2,3-dihydro-1H-inden-5-yl]imidazo[2,1b][1,3]thiazole-5-sulfonamide]	85.8%	75.5%
CC1Cc2ccc(NS(=O)(=O)c3c(Cl)nc4sccn34)cc2/C1=N\NC(=N)N (centres unmarked) [Compound 11, 2-(6-{[(6-chloroimidazo[2,1-b][1,3]thiazol-5-yl)sulfonyl]amino}-2-methyl-2,3-dihydro-1H-inden-1-ylidene)hydrazinecarboximidamide]	91.1%	84.7%
N=C(N)N/N=C1/CCc2ccc(NS(=O)(=O)c3c(Cl)nc4sccn34)cc21 [Compound 9, 2-(6-{[(6-chloroimidazo[2,1-b][1,3]thiazol-5-yl)sulfonyl]amino}-2,3-dihydro-1H-inden-1-ylidene)hydrazinecarboximidamide]	89.6%	84.7%
O=S(=O)(Nc1ccc2c(c1)C(N1CCNCC1)CC2)c1c(Cl)nc2sccn12 (centres unmarked) [Compound 5, N-[3-(piperazin-1-yl)-2,3-dihydro-1H-inden-5-yl]-6-chloroimidazo[2,1-b][1,3]thiazole-5-sulfonamide]	85.6%	63.6%
CN1CCOc2cc(S(=O)(=O)Nc3ccc4c(c3)C(=NNC3=NCCN3)CC4)ccc21 [Compound 26, N-[3-(4,5-dihydro-1H-imidazol-2-ylhydrazono)-2,3-dihydro-1H-inden-5-yl]-4-methyl-3,4-dihydro-2H-1,4-benzoxazine-7-sulfonamide hydrochloride]	84.6%	51%
CN1CCOc2cc(S(=O)(=O)Nc3ccc4c(c3)/C(=N\NC(=N)N)CC4)ccc21 [Compound 23, 2-(6-{[(4-methyl-3,4-dihydro-2H-1,4-benzoxazine-7-yl)sulfonyl]amino}-2,3-dihydro-1H-inden-1-ylidene)hydrazinecarboximidamide hydrochloride]	87.3%	69.3%
N=C(N)N/N=C1/CCc2ccc(NS(=O)(=O)c3ccc4ccccc4c3)cc21 [Compound 8, 2-{6-[(2-naphthylsulfonyl)amino]-2,3-dihydro-1H-inden-1-ylidene}hydrazinecarboximidamide hydrochloride]	82.2%	56.1%
CN1CCN(C2CC(C)(C)c3ccc(NS(=O)(=O)c4c(Cl)nc5sccn45)cc32)CC1 (centres unmarked) [Compound 15, 6-chloro-N-[1,1-dimethyl-3-(4-methylpiperazin-1-yl)-2,3-dihydro-1H-inden-5-yl]imidazo[2,1-b][1,3]thiazole-5-sulfonamide]	30.3%	-6.6%

Reference: US20100069378A1, “SUBSTITUTED INDANYL SULFONAMIDE COMPOUNDS, THEIR PREPARATION AND USE AS MEDICAMENTS” (LABORATORIOS DEL DR. ESTEVE, S.A., priority 2006, published 2010)
